How the values were obtained:
Assay type in all cases: cell-based
Conditions in all cases: Fluo 3, 100% = S1P at 10^-6 M
human S1P1 receptor = target: T1, human S1P1 receptor (Homo sapiens, UniProt P21453); test: Intracellular calcium mobilization induced test, hS1P1 receptors expressing CHO-K1 cells
T1 construct: expressed in transfected cells; host or cells: CHO-K1
Protocol: (§1) Intracellular Calcium Mobilization Induced Test of a Subject Compound Against Human S1P (sphingosine-1-phosphate) Receptor-expressing Cells
(§2) Human S1P receptors expressing CHO-K1 cells (hS1P1 receptors expressing CHO-K1 cells, hS1P3 receptors expressing CHO-K1 cells, and hS1P4 receptors expressing CHO-K1 cells), were maintained in Ham's F-12 medium containing 10% fetal bovine serum and 400 μg/mL Geneticin. Into a black, clear bottom, culture plate (BD Falcon) with 96 wells, 7×10^4 cells/well of the hS1P1 and hS1P3 receptors expressing CHO-K1 cells were plated, and […] of the hS1P4 receptors expressing CHO-K1 cells were plated. The cells were incubated overnight at 37° C. at 5% CO2. The medium in the wells were removed by suction. A loading buffer included in a Calcium Kit-Fluo 3 reagent (Dojindo Laboratories) was added as a fluorescent Ca^2+-binding indicator. The cells were incubated for 80 minutes at 37° C. at 5% CO2. After the incubation, the wells were washed with PBS. A recording buffer included in a Calcium Kit-Fluo 3 reagent was added, and the cells were incubated for 20 minutes at 37° C. at 5% CO2. Using a microplate spectrophotofluorometer (FLEX Station, Molecular Devices), the fluorescence intensity at an excitation wavelength of 485 nm and a detection wavelength of 525 nm was measured. S1P and the subject compound prepared in medium so that the concentration was 10-fold that of the final concentration (final DMSO concentration of 0.1%). The solution was added 18 seconds after the fluorescence measurement was started, and then fluorescence intensity was continuously measured every 1.5 seconds until 100 seconds after addition. A value (fluorescence increase) obtained by subtracting the minimum fluorescence intensity from the maximum fluorescence intensity was calculated from the measurement data. Taking the difference between the fluorescence increase when the solvent was added and the fluorescence increase when the S1P was allowed to act at 10^−6 M as 100%, the fluorescence increase ratio (%) of the subject compound was calculated. Taking this value as the intracellular calcium mobilization induced activity of the subject compound, the EC50 value was determined using PRISM software (GraphPad). In Table 1, 10 nmol/L>EC50 value ≧1 nmol/L is indicated as a +, and 1 nmol/L>EC50 value is indicated as a ++.

human S1P3 receptor = target: T2, human S1P3 receptor (Homo sapiens, UniProt Q99500); test: Intracellular calcium mobilization induced test, hS1P3 receptors expressing CHO-K1 cells
T2 construct: expressed in transfected cells; host or cells: CHO-K1
T2 sequence (Q99500 whole entry): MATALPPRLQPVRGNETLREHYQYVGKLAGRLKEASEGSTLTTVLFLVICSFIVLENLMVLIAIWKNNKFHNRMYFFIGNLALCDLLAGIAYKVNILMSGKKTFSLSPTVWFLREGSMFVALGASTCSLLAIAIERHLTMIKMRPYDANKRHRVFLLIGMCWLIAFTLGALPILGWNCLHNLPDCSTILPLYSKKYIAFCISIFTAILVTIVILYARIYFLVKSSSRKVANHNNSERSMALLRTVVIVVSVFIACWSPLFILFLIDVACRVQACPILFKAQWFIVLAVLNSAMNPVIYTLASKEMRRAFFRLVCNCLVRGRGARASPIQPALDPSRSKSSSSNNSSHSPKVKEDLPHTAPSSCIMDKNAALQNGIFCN
Protocol: as §1, §2

human S1P4 receptor = target: T3, human S1P4 receptor (Homo sapiens, UniProt O95977); test: Intracellular calcium mobilization induced test, hS1P4 receptors expressing CHO-K1 cells
T3 construct: expressed in transfected cells; host or cells: CHO-K1
T3 sequence (O95977 1-384): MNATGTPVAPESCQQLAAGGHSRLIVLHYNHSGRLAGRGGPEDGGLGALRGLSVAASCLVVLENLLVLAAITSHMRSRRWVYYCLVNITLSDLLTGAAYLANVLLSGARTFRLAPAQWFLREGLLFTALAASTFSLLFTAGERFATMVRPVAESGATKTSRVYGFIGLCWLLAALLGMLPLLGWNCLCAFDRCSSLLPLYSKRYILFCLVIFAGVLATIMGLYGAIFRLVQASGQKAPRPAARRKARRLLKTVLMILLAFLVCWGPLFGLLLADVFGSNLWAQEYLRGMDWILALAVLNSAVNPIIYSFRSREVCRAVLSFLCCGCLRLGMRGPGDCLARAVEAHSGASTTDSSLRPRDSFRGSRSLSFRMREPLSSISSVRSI
Protocol: as §1, §2

T1 sequence (P21453 whole entry): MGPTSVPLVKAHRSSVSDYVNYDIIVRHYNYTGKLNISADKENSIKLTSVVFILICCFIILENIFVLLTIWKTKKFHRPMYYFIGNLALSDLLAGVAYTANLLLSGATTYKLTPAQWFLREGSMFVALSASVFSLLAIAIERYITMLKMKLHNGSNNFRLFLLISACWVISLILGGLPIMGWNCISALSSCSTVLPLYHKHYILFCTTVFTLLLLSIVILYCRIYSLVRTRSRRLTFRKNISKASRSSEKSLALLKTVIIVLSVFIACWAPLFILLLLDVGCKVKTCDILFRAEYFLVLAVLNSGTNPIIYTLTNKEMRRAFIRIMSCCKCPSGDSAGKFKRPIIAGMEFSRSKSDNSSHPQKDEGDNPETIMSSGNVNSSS

Question: For `C[C@@](N)(CCCc1ccc(Oc2cccc(C(F)(F)F)c2)cc1Cl)COP(=O)(O)O` [Example 40, (R)-2-amino-5-[2-chloro-4-(3-trifluoromethylphenoxy)phenyl]-2-methylpentyl phosphoric acid monoester], which EC50 (human S1P1 receptor) is on record?
Answer: < 1 nM

Question: And the EC50 (human S1P3 receptor)?
Answer: > 10000 nM

Question: And the EC50 (human S1P4 receptor)?
Answer: 1 to 10 nM

Question: `C[C@@](N)(CCCc1ccc(Sc2cccc(C(F)(F)F)c2)cc1Cl)COP(=O)(O)O` [Example 41, (R)-2-amino-5-[2-chloro-4-(3-trifluoromethylphenylthio)phenyl]-2-methylpentyl phosphoric acid monoester] was tested. Which EC50 (human S1P1 receptor) did it give?
Answer: < 1 nM

Question: What about the EC50 (human S1P3 receptor) of the same molecule?
Answer: > 10000 nM

Question: And the EC50 (human S1P4 receptor)?
Answer: 1 to 10 nM

Question: Which EC50 (human S1P1 receptor) does the source give for `C[C@@](N)(CCc1ccc(Oc2cccc(C(F)(F)F)c2)cc1Cl)COP(=O)(O)O` [Example 42, (R)-2-amino-4-[2-chloro-4-(3-trifluoromethylphenoxy)phenyl]-2-methylbutyl phosphoric acid monoester] here?
Answer: < 1 nM

Question: What about the EC50 (human S1P3 receptor) of the same molecule?
Answer: > 10000 nM

Question: And the EC50 (human S1P4 receptor)?
Answer: 1 to 10 nM

Question: How did the EC50 (human S1P1 receptor) turn out when `C[C@@](N)(CCc1ccc(Sc2cccc(C(F)(F)F)c2)cc1Cl)COP(=O)(O)O` [Example 43] was run?
Answer: < 1 nM

Question: What about the EC50 (human S1P3 receptor) of the same molecule?
Answer: > 10000 nM

Question: And the EC50 (human S1P4 receptor)?
Answer: 1 to 10 nM

Question: `CCc1cccc(Sc2ccc(CC[C@@](C)(N)COP(=O)(O)O)c(Cl)c2)c1` [Example 44, (R)-2-amino-4-[2-chloro-4-(3-ethylphenylthio)phenyl]-2-methylbutyl phosphonic acid monoester] was tested. Which EC50 (human S1P1 receptor) did it give?
Answer: < 1 nM

Question: And the EC50 (human S1P3 receptor)?
Answer: > 10000 nM

Question: And the EC50 (human S1P4 receptor)?
Answer: 1 to 10 nM

Question: For `Cc1cccc(Oc2ccc(CCC[C@@](C)(N)COP(=O)(O)O)c(Cl)c2)c1` [Example 45, (R)-2-amino-5-[2-chloro-4-(3-methylphenoxy)phenyl]-2-methylpentyl phosphonic acid monoester], which EC50 (human S1P1 receptor) is on record?
Answer: < 1 nM

Question: What about the EC50 (human S1P3 receptor) of the same molecule?
Answer: > 10000 nM

Question: What about the EC50 (human S1P4 receptor) of the same molecule?
Answer: 1 to 10 nM

Question: Which results are given for `CCc1cccc(Sc2ccc(CCC[C@@](C)(N)COP(=O)(O)O)c(Cl)c2)c1` [Example 46, (R)-2-amino-5-[2-chloro-4-(3-ethylphenylthio)phenyl]-2-methylpentyl phosphonic acid monoester]?
Answer: EC50 (human S1P1 receptor): < 1 nM; EC50 (human S1P3 receptor): > 10000 nM; EC50 (human S1P4 receptor): 1 to 10 nM

Question: `CCCc1cccc(Oc2ccc(CCC[C@@](C)(N)COP(=O)(O)O)c(Cl)c2)c1` [Example 47, (R)-2-amino-5-[2-chloro-4-(3-propylphenoxy)phenyl]-2-methylpentyl phosphonic acid monoester] was tested. Which EC50 (human S1P1 receptor) did it give?
Answer: < 1 nM

Question: And the EC50 (human S1P3 receptor)?
Answer: > 10000 nM

Question: And the EC50 (human S1P4 receptor)?
Answer: 1 to 10 nM

Question: `C[C@@](N)(CCCc1ccc(Sc2cccc(Cl)c2)cc1Cl)COP(=O)(O)O` [Example 48, (R)-2-amino-5-[2-chloro-4-(3-chlorophenylthio)phenyl]-2-methylpentyl phosphonic acid monoester] was tested. Which EC50 (human S1P1 receptor) did it give?
Answer: 1 to 10 nM

Question: What about the EC50 (human S1P3 receptor) of the same molecule?
Answer: > 10000 nM

Question: And the EC50 (human S1P4 receptor)?
Answer: < 1 nM

Question: Which EC50 (human S1P1 receptor) does the source give for `C[C@@](N)(CCCc1ccc(Sc2cccc(C(F)(F)F)c2)cc1F)COP(=O)(O)O` [Example 49, (R)-2-amino-5-[2-fluoro-4-(3-trifluoromethylphenylthio)phenyl]-2-methylpentyl phosphonic acid monoester] here?
Answer: < 1 nM

Question: What about the EC50 (human S1P3 receptor) of the same molecule?
Answer: > 10000 nM

Question: And the EC50 (human S1P4 receptor)?
Answer: 1 to 10 nM

Question: Which EC50 (human S1P1 receptor) does the source give for `CCC[C@@](N)(CCCc1ccc(Sc2cccc(C(F)(F)F)c2)cc1Cl)COP(=O)(O)O` [Example 50, (R)-2-amino-5-[2-chloro-4-(3-trifluoromethylphenylthio)phenyl]-2-propylpentyl phosphonic acid monoester] here?
Answer: < 1 nM

Question: And the EC50 (human S1P3 receptor)?
Answer: > 10000 nM

Question: What about the EC50 (human S1P4 receptor) of the same molecule?
Answer: 1 to 10 nM

Question: `C[C@@](N)(CCCc1ccc(Sc2cccc(C(F)F)c2)cc1Cl)COP(=O)(O)O` [Example 51, (R)-2-amino-5-[2-chloro-4-(3-difluoromethylphenylthio)phenyl]-2-methylpentyl phosphonic acid monoester] was tested. Which EC50 (human S1P1 receptor) did it give?
Answer: 1 to 10 nM

Question: And the EC50 (human S1P3 receptor)?
Answer: > 10000 nM

Question: What about the EC50 (human S1P4 receptor) of the same molecule?
Answer: 1 to 10 nM
